Consider one compound from patent US20080207569A1, “Methods for the treatment of liver diseases” (priority 2007, published 2008).

The structures appear in SMILES notation.

Data set [1] has as its system full-length HCV replicon in Huh7 human hepatoma cell line (21-5). The experiment in a line: HCV RNA replicon antiviral evaluation assay. It counts as cell-based, hepatitis C virus. Particulars: 72 hr; HCV RNA replicon levels by TaqMan RT-PCR; read-out: EC50 (concentration inhibition virus replication by 50%). In general terms: Replicon systems follow genome replication, usually without infectious particles.
Experimental: The assay was conducted as described by Pietschmann, T. et al., supra.
Human interferon alpha-2b was included in each run as a positive control compound. Subconfluent cultures of the ET line were plated out into 96-well plates that were dedicated for the analysis of cell numbers (cytotoxicity) or antiviral activity and the next day drugs were added to the appropriate wells. Cells were processed 72 hr later when the cells were still sub-confluent. HCV RNA replicon levels and the toxic concentration of drug that reduces cell numbers, as indicated by host cell ribosomal RNA (rRNA) levels, were assessed by TaqMan RT-PCR. The EC50 (concentration inhibition virus replication by 50%), IC50 (concentration decreasing cell viability by 50%) and SI50 (selective index: IC50/EC50) values were calculated.

For data set [2], the system named is Huh7 human hepatoma cell line (the 21-5 cell line). The following applies: read-out: IC50 for cytotoxicity (concentration decreasing cell viability by 50%); 72 hr; host cell rRNA levels by TaqMan RT-PCR. The source says:
Cells were processed 72 hr later when the cells were still sub-confluent.
Background: Quantitative PCR measures a nucleic acid by following its amplification.

The subject of data set [3] is TNF-α/D-Galactosamine induced liver injury. The experiment in a line: TNF-α model of liver injury, 24 hour survival. It counts as in vivo, male C57B1/6 mice. The following applies: TNF-α/D-Gln IP; average from 3 studies; p=0.03 vs control mice (27±7.3%). As to the method: TNF-α is a cytokine that is implicated in inducing liver injury in a variety of acute and chronic liver diseases such as chronic HCV and acute liver failure. An exemplary in vivo model to test pharmacological agents against TNF-α induced injury is the TNF-α/D-Gal model of liver injury in mice. In this model, mice are treated with TNF-α/D-Gal and compound is administered to evaluate its ability to protect against liver damage. The compound is administered either before, at the time of or after the treatment with TNF-α/D-Gal, and followed for a period of approximately 6 hours. Allowing this model to persist past 6 hours is a variation used to determine the improved survival afforded by compound treatment.
(§1) In vivo efficacy of RO-113-0830 was assessed using male C57B1/6 mice (Simonsen Labs) in two well-established models of liver damage. The mice were allowed to acclimate for at least three days.
To determine a benefit on survival, TNF-α model, D-Galactosamine (D-Gln) (800 mg/kg) and TNF-α (20 or 40 μg/kg) were injected IP, and mice were allowed to survive for 24 hours post insult. All morbid mice were euthanized with 125 mg/kg of Nembutal IP. The average 24 hour survival from 3 studies was 27±7.3% and. 55±7.6% (p=0.03) in the TNFα/D-Gln control mice and RO-113-0830-treated mice, respectively.

Data set [4] deals with bile duct ligation (BDL) induced liver injury and hepatic fibrosis. The experiment in a line: Bile duct ligation model of liver fibrosis. The following applies: 10 mg/kg once a day by gavage. Format: in vivo, C57/BL6 wild-type mice. As to the method: The bile duct ligation model is a well characterized model of liver fibrosis. Briefly, C57/BL6 wild-type mice 6 to 8 weeks of age were subjected to bile duct ligation (BDL) for 14 days. Sham-operated wild type mice were used as controls. Either RO 113-0830 or CMC (carboxymethylcellulose) were administered by gavage in a dose of 10 mg/kg body weight once a day. Hepatocyte apoptosis was quantified by the TUNEL assay and immunofluorescence for activated caspases 3/7. Liver injury was assessed by histopathology, and quantification of bile infarcts. Hepatic fibrosis was assessed by Sirius red staining and quantitative morphometry. Real-time polymerase chain reaction (PCR) was used to measure mRNA transcripts for collagen 1 alpha (I) and alpha-smooth muscle actin.

Data set [5] relates to TNF-α/D-Galactosamine induced liver injury. The experiment in a line: TNF-α model of liver injury (TNFα/D-Gln), plasma ALT activity. Format: in vivo, male C57B1/6 mice. As for the experimental part: TNF-α is a cytokine that is implicated in inducing liver injury in a variety of acute and chronic liver diseases such as chronic HCV and acute liver failure. An exemplary in vivo model to test pharmacological agents against TNF-α induced injury is the TNF-α/D-Gal model of liver injury in mice. In this model, mice are treated with TNF-α/D-Gal and compound is administered to evaluate its ability to protect against liver damage. The compound is administered either before, at the time of or after the treatment with TNF-α/D-Gal, and followed for a period of approximately 6 hours. […]
Multiple outcome measures are used for this evaluation. […] The extent of liver damage can be graded by examining liver samples prepared and evaluated microscopically by trained observers. […] In certain embodiment, compounds described herein protect against TNF-α/D-Gal induced liver injury as determined by these parameters. In certain embodiment, compounds described herein protect against Fas induced liver injury as determined by these parameters. […]
In vivo efficacy of RO-113-0830 was assessed using male C57B1/6 mice (Simonsen Labs) in two well-established models of liver damage. […]
In the TNF-α model of liver injury, D-Galactosamine (D-Gln) (800 mg/kg) and TNFα (20 or 40 μg/kg) were injected IP. […] Plasma ALT activity was determined using a kit from Sigma-Aldrich.

Data set [6] deals with Fas-induced liver damage. Nature of the data set: Fas driven model of liver damage (activating antibody Jo-2), plasma ALT activity. Format: in vivo, male C57B1/6 mice. The following applies: 10 mg/kg PO; six hours after Jo-2 IV; average of 2 studies, p<0.05 in each. As to the method: as §1
In a Fas driven model of liver damage, an activating antibody to Fas (Jo-2) was administered IV. Six hours later, animals were anesthetized with Nembutal (50 mg/kg IP), and blood was taken by cardiac puncture. Plasma ALT activity was determined using a kit from Sigma-Aldrich.

Consider `O=C(NO)C1(CS(=O)(=O)c2ccc(Oc3ccc(Cl)cc3)cc2)CCOCC1` [RO-113-0830], for which the EC50 in data set [1] came out at 0.07 µM. Further, in data set [2], the IC50 is ~25 µM. In addition, the 24 hour survival in data set [3] came out at 55±7.6%. Besides, in data set [4] (14 days of BDL), the “reduction of Sirius red staining of hepatic collagen” value is recorded as 3 fold. Besides, in data set [4] (14 days of BDL, histologic examination), the “reduction in the number of bile infarcts vs vehicle” value was > 70%. In data set [4] (14 days of BDL, p<0.01), the “decrease in TUNEL-positive hepatocytes vs vehicle” value is 3 fold and the “decrease in caspase 3/7-positive hepatocytes vs vehicle” value was determined as 5 fold. Besides, in data set [4] (14 days of BDL, real-time PCR), the “reduction of hepatic mRNA for alpha-smooth muscle actin vs vehicle” value was > 60% and the “reduction of hepatic mRNA for collagen I vs vehicle” value is listed as > 60%. Also, the “overall animal survival following 14 days of BDL” value in data set [4] (p<0.05) is “significantly enhanced”. In addition, in data set [5] (0.001-30 mg/kg PO 30 minutes before insult, six hours), the “plasma ALT activity, effect in words” value is recorded as “dose-dependently decreased plasma ALT activity”. The “ED50 for decrease of plasma ALT activity” value in data set [5] (PO by gavage 30 minutes before TNFα/D-Gln insult, ALT six hours later, average from 4 studies) came to 0.26 ± 0.08 mg/kg. Further, in data set [6], the “reduction of Fas-induced elevation in plasma ALT activity” value came out at 50%.
